Assay results from PubChem BioAssay AID248 (DTP/NCI, 2004).
Where “and” joins values, the source holds several entries; their conditions need not be identical. Identical values can stand only once. Inconclusive results and toxic doses are left out. Rule as the data show it: active = T/C of 150% or more; inactive = T/C below 125%. Peptide text beside a SMILES is read from it.

Test system: L1210 leukemia ip in BDF1 mice, survival T/C
Test: NCI In Vivo Anticancer Drug Screen. Data for tumor model L1210 Leukemia (intraperitoneal) in B6D2F1 (BDF1) mice
Settings: endpoint: mean survival time, higher = longer survival
Summary of the method: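 In this screen, tumor-bearing mice given compound are compared to those given vehicle, and their survival values are reported as a treated-to-control quotient.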

[1] = dose: 100.0 mg/kg/injection, schedule: Q01DX001 (ip), vehicle: other
[2] = dose: 200.0 mg/kg/injection, schedule: Q01DX001 (ip), vehicle: other
[3] = dose: 100.0 mg/kg/injection, schedule: Q01DX001 (ip), vehicle: saline
[4] = dose: 200.0 mg/kg/injection, schedule: Q01DX001 (ip), vehicle: saline
[5] = dose: 400.0 mg/kg/injection, schedule: Q01DX001 (ip), vehicle: saline
[6] = dose: 100.0 mg/kg/injection, schedule: Q01DX009 (ip), vehicle: Klucel (hydroxypropylcellulose) (HPC)
[7] = dose: 100.0 mg/kg/injection, schedule: Q04DX003 (ip), vehicle: Klucel (hydroxypropylcellulose) (HPC)
[8] = dose: 200.0 mg/kg/injection, schedule: Q04DX003 (ip), vehicle: Klucel (hydroxypropylcellulose) (HPC)
[9] = dose: 400.0 mg/kg/injection, schedule: Q04DX003 (ip), vehicle: Klucel (hydroxypropylcellulose) (HPC)
[10] = dose: 200.0 mg/kg/injection, schedule: Q01DX009 (ip), vehicle: Klucel (hydroxypropylcellulose) (HPC)
[11] = dose: 400.0 mg/kg/injection, schedule: Q01DX009 (ip), vehicle: Klucel (hydroxypropylcellulose) (HPC)
[12] = dose: 100.0 mg/kg/injection, schedule: Q01DX001 (ip), vehicle: Klucel (hydroxypropylcellulose) (HPC)
[13] = dose: 200.0 mg/kg/injection, schedule: Q01DX001 (ip), vehicle: Klucel (hydroxypropylcellulose) (HPC)
[14] = dose: 400.0 mg/kg/injection, schedule: Q01DX001 (ip), vehicle: Klucel (hydroxypropylcellulose) (HPC)

Measured: T/C

CCSSCC(NC(=O)OC(C)(C)C)C(=O)O (stereo unspecified)
inactive: dose: 50.0 mg/kg/injection, schedule: Q04DX003 (ip), vehicle: other 97 % of control | [1] 101 % of control | dose: 100.0 mg/kg/injection, schedule: Q04DX003 (ip), vehicle: other 94 % of control | [2] 97 % of control | dose: 200.0 mg/kg/injection, schedule: Q04DX003 (ip), vehicle: other 97 % of control

O=c1[nH]c(=S)c2ncn(C3OC(CO)C(O)C3O)c2[nH]1 (stereo unspecified)
inactive: [3] 107 % of control | [4] 101 % of control | [5] 104 % of control

COc1ccc(C)cc1NC(=S)NC(=O)C(C)Oc1ccccc1 (stereo unspecified)
inactive: dose: 25.0 mg/kg/injection, schedule: Q01DX009 (ip), vehicle: Klucel (hydroxypropylcellulose) (HPC) 95 % of control | dose: 50.0 mg/kg/injection, schedule: Q01DX009 (ip), vehicle: Klucel (hydroxypropylcellulose) (HPC) 93 % of control | [6] 101 % of control and 91 % of control | [7] 97 % of control | [8] 103 % of control | [9] 97 % of control

Cc1ccc(S(=O)(=O)OCC2C3CCC(c4ccccc43)C2COS(=O)(=O)c2ccc(C)cc2)cc1 (stereo unspecified)
inactive: [7] 109 % of control | [8] 105 % of control | [9] 88 % of control

NC(N)=N/N=C/c1ccncc1
inactive: dose: 15.0 mg/kg/injection, schedule: Q01DX Z (ip), vehicle: saline 104 % of control | dose: 25.0 mg/kg/injection, schedule: Q01DX009 (ip), vehicle: saline 104 % of control | dose: 30.0 mg/kg/injection, schedule: Q01DX Z (ip), vehicle: saline 91 % of control | dose: 50.0 mg/kg/injection, schedule: Q01DX009 (ip), vehicle: saline 101 % of control | dose: 60.0 mg/kg/injection, schedule: Q01DX Z (ip), vehicle: saline 107 % of control | dose: 60.0 mg/kg/injection, schedule: Q01DX Z (oral), vehicle: saline 100 % of control | dose: 100.0 mg/kg/injection, schedule: Q01DX009 (ip), vehicle: saline 104 % of control | dose: 120.0 mg/kg/injection, schedule: Q01DX Z (ip), vehicle: saline 105 % of control | dose: 120.0 mg/kg/injection, schedule: Q01DX Z (oral), vehicle: saline 97 % of control | dose: 150.0 mg/kg/injection, schedule: Q01DX009 (ip), vehicle: saline 106 % of control | dose: 240.0 mg/kg/injection, schedule: Q01DX Z (oral), vehicle: saline 103 % of control

CC(=O)NC(CC(N)=O)C(=O)O (stereo unspecified)
inactive: dose: 100.0 mg/kg/injection, schedule: Q04DX002 (ip), vehicle: saline 96 % of control | dose: 200.0 mg/kg/injection, schedule: Q04DX002 (ip), vehicle: saline 99 % of control | dose: 400.0 mg/kg/injection, schedule: Q04DX002 (ip), vehicle: saline 99 % of control

CCOC(=O)NCS(=O)(=O)c1ccccc1-c1ccccc1
inactive: [7] 93 % of control | [8] 104 % of control

O=C(O)c1c(O)c(Br)cc(Br)c1O
inactive: [1] 109 % of control | [2] 104 % of control | dose: 400.0 mg/kg/injection, schedule: Q01DX001 (ip), vehicle: other 90 % of control

O=C(OCS(=O)c1ccccc1)c1ccccc1 (stereo unspecified)
inactive: [7] 94 % of control | [8] 104 % of control

Cc1cc(Cl)c(Cl)cc1NC(=O)c1ccc(Cl)cc1Cl
inactive: dose: 100.0 mg/kg/injection, schedule: Q04DX002 (ip), vehicle: Klucel (hydroxypropylcellulose) (HPC) 108 % of control | dose: 200.0 mg/kg/injection, schedule: Q04DX002 (ip), vehicle: Klucel (hydroxypropylcellulose) (HPC) 94 % of control | dose: 400.0 mg/kg/injection, schedule: Q04DX002 (ip), vehicle: Klucel (hydroxypropylcellulose) (HPC) 108 % of control

O=[N+]([O-])c1ccc(/C=C/C=C/c2ccccc2)cc1
inactive: dose: 100.0 mg/kg/injection, schedule: Q01DX009 (ip), vehicle: saline with Tween-80 105 % of control | dose: 200.0 mg/kg/injection, schedule: Q01DX009 (ip), vehicle: saline with Tween-80 92 % of control | dose: 400.0 mg/kg/injection, schedule: Q01DX009 (ip), vehicle: saline with Tween-80 89 % of control

C=CCc1cn(C2OC(COC(=O)c3ccccc3)C(OC(=O)c3ccccc3)C2OC(=O)c2ccccc2)c(=S)[nH]c1=O (stereo unspecified)
inactive: dose: 100.0 mg/kg/injection, schedule: Q01DX005 (ip), vehicle: saline 95 % of control | dose: 200.0 mg/kg/injection, schedule: Q01DX005 (ip), vehicle: saline 98 % of control

CC(C)NCCC#N
inactive: dose: 100.0 mg/kg/injection, schedule: Q04DX003 (ip), vehicle: saline 104 % of control | dose: 200.0 mg/kg/injection, schedule: Q04DX003 (ip), vehicle: saline 111 % of control | dose: 400.0 mg/kg/injection, schedule: Q04DX003 (ip), vehicle: saline 108 % of control

FC(F)(F)c1cccc(NC(=S)SCc2ccccc2)c1
inactive: dose: 75.0 mg/kg/injection, schedule: Q04DX003 (ip), vehicle: saline with Tween-80 95 % of control | dose: 150.0 mg/kg/injection, schedule: Q04DX003 (ip), vehicle: saline with Tween-80 98 % of control | dose: 300.0 mg/kg/injection, schedule: Q04DX003 (ip), vehicle: saline with Tween-80 102 % of control

CC(C)CC(=O)Nc1ccc(S(=O)(=O)NCC(C)(C)O)cc1
inactive: dose: 100.0 mg/kg/injection, schedule: Q04DX003 (ip), vehicle: saline with Tween-80 98 % of control | dose: 200.0 mg/kg/injection, schedule: Q04DX003 (ip), vehicle: saline with Tween-80 98 % of control | dose: 400.0 mg/kg/injection, schedule: Q04DX003 (ip), vehicle: saline with Tween-80 95 % of control

CNC(c1ccncc1)C(NC)c1ccncc1 (stereo unspecified)
inactive: [6] 94 % of control | [7] 95 % of control | [10] 91 % of control | [8] 95 % of control | [11] 96 % of control | [9] 95 % of control

CC(O)C(NC(=O)C(N)CCCN=C(N)N)C(=O)NC(Cc1ccccc1)C(=O)O (stereo not drawn) (H-Arg-Thr-Phe-OH; configuration not given here)
inactive: dose: 18.75 mg/kg/injection, schedule: Q04DX002 (ip), vehicle: saline with Tween-80 101 % of control | dose: 37.5 mg/kg/injection, schedule: Q04DX002 (ip), vehicle: saline with Tween-80 97 % of control | dose: 75.0 mg/kg/injection, schedule: Q04DX002 (ip), vehicle: saline with Tween-80 93 % of control | dose: 150.0 mg/kg/injection, schedule: Q04DX002 (ip), vehicle: saline with Tween-80 97 % of control

CCOC(=O)C(Cc1ccccc1)NP(=O)(OCCCl)OCCCl (stereo unspecified)
inactive: [6] 104 % of control | [7] 95 % of control | [10] 96 % of control | [8] 95 % of control | [11] 101 % of control | [9] 87 % of control

COc1cc2ccnc(-c3onc4cc(OC)c(OC)cc34)c2cc1OC
inactive: dose: 75.0 mg/kg/injection, schedule: Q01DX001 (ip), vehicle: saline 101 % of control | dose: 150.0 mg/kg/injection, schedule: Q01DX001 (ip), vehicle: saline 98 % of control | dose: 300.0 mg/kg/injection, schedule: Q01DX001 (ip), vehicle: saline 98 % of control

CC(=O)OC1COC(SC(=N)N)C(OC(C)=O)C1OC(C)=O (stereo unspecified)
inactive: dose: 75.0 mg/kg/injection, schedule: Q01DX001 (ip), vehicle: water 101 % of control and 104 % of control | dose: 150.0 mg/kg/injection, schedule: Q01DX001 (ip), vehicle: water 104 % of control and 103 % of control | dose: 300.0 mg/kg/injection, schedule: Q01DX001 (ip), vehicle: water 97 % of control and 95 % of control

CCOC(=O)C(=O)Cc1ccccc1[N+](=O)[O-]
inactive: [12] 96 % of control | [13] 102 % of control | [14] 95 % of control

COc1ccc(OC(=O)Nc2ccc(Cl)cc2OC)cc1
inactive: [6] 92 % of control | [10] 95 % of control

O=S(=O)(CCCc1ccccc1)CCS(=O)(=O)CCCc1ccccc1
inactive: dose: 50.0 mg/kg/injection, schedule: Q01DX009 (ip), vehicle: acetone 98 % of control | dose: 100.0 mg/kg/injection, schedule: Q01DX009 (ip), vehicle: acetone 98 % of control | dose: 200.0 mg/kg/injection, schedule: Q01DX009 (ip), vehicle: acetone 98 % of control

Cc1[nH]c(=O)n(C)c(=O)c1C
inactive: [12] 109 % of control | [13] 106 % of control | [14] 104 % of control

CC(=O)C1(C)OC(c2ccc(F)cc2)=NC1=O (stereo unspecified)
inactive: [3] 102 % of control | [4] 102 % of control | [5] 98 % of control
